Laboratory results published in patent US11026910B2, “α- and γ-truxillic acid derivatives and pharmaceutical compositions thereof” (The Research Foundation for The State University of New York, priority 2012, dated 2021).
Entries after “also recorded” stand apart in the source; their conditions may differ.

Columns and labels:
male C57Bl6 mice [1] = assay: Carrageenan-induced paw edema and thermal hyperalgesia; assay type: in vivo
Protocol: (§1) We used male C57Bl6 mice (22-30 g, Taconic Farms) for all experiments. The animals were group housed at room temperature and kept on a 12:12 hour light:dark cycle with ad libitum access to water and food. The animals were habituated to the experimental room for one week before testing. All experiments were approved by the Stony Brook University Institutional Animal Care and Use Committee. The experimenter was blinded to the treatment conditions of each animal.
Paw edema was induced by injecting 1% λ-carrageenan (20 μl, in sterile saline) into the plantar surface of the left hind paw and a control solution of saline into the right hind paw using a 27 gauge needle. Paw diameters were measured before carrageenan injection and 4 hours after injection using digital electronic calipers (Fisher) and expressed to the nearest ±0.01 mm. […] The cannabinoid receptor antagonists, rimonabant and SR144528 (3 mg/kg, i.p.), in ethanol:emulphor:saline (1:1:18), were injected 15 min before the FABP inhibitor. Edema is reported as the change in paw diameter at 4 hr over the baseline. Changes in paw diameter of saline-injected contralateral paws were negligible. Thermal hyperalgesia measured the latency to withdraw the paw from a focused beam of radiant heat applied to the plantar surface of the hind paw using a Hargreaves plantar apparatus (Ugo Basile) set at an intensity of 3.0. For each mouse, the average latencies consisted of three trials spaced at least 5 minutes apart. The mice were habituated to the test chamber for 30 min. The cutoff time was set at 30 sec.
(§2) Behavioral data are presented as means±S.E.M. for the vehicle and inhibitor-treated groups, each consisting of at least 6 animals. Statistical significance between vehicle and inhibitor groups was determined using unpaired t-tests or one-way ANOVA followed by Dunnett's post hoc analysis. In all cases, differences of p<0.05 were considered significant.

male C57Bl6 mice [2] = assay: Formalin test; assay type: in vivo
Protocol: as §1
Mice were habituated to the observation chamber (Plexiglas box, 25 cm×25 cm×25 cm) for 30 min prior to formalin injection. The mice subsequently received an injection of formalin (2.5% in saline, 20 μl) into the plantar surface of the right hind paw using a 27 gauge needle. The animals were immediately placed back into the observation, chamber and nocifensive behavior (time spent licking or biting the paw) was recorded for 60 min. The formalin test consists of two phases with the first phase (0-5 min) reflecting nociceptor activation and the second phase (15-45 min) reflecting an inflammatory pain response.
as §2

## O=C(O)[C@H]1[C@@H](c2ccccc2)[C@@H](C(=O)Oc2cccc3ccccc23)[C@@H]1c1ccccc1 (single isomer, unassigned) [Compound 26, α-2,4-diphenyl-cyclobutane-1,3-dicarboxylic Acid mono-(1-naphthol) Ester]
Male C57Bl6 mice [1]; 20 mg/kg i.p., antagonists 3 mg/kg i.p. 15 min before
  antinociceptive and anti-edematous effects after rimonabant and SR144528 pretreatment: completely reversed; also recorded: blocked
Male C57Bl6 mice [1]; 20 mg/kg, i.p. (FIG. 16A)
  carrageenan-induced paw edema, 24 hrs after inhibitor administration: reduced
  carrageenan-induced thermal hyperalgesia, 24 hrs after inhibitor administration: reduced
Male C57Bl6 mice [1]; 20 mg/kg, i.p., 45 min prior to carrageenan (FIG. 10B)
  carrageenan-induced thermal hyperalgesia: significantly reduced; also recorded: alleviates
Male C57Bl6 mice [1]; 20 mg/kg, i.p., paw diameter at 4 hr (FIG. 10C)
  carrageenan-induced paw edema: significantly reduced; also recorded: reduces
Male C57Bl6 mice [2]; 20 mg/kg, i.p. (FIG. 10A)
  formalin test first phase (0-5 min) nocifensive behavior: significantly reduced; also recorded: reduces
  formalin test second phase (15-45 min) nocifensive behavior: only during the first phase
Male C57Bl6 mice [2]; FIG. 16B
  first phase of formalin-induced nociception: reduce
  second phase of formalin-induced nociception: reduce
